How the values were obtained:
c-kit kinase = target: T1, c-kit kinase (Homo sapiens, UniProt P10721); experiment: c-Kit biochemical assay, AlphaScreen, 10 μM ATP; details: c-kit biochemical inhibitory activity; read-out: Biochemical activity (IC50 μM) Kit
T1 construct: The c-kit (or kinase domain thereof) is an active kinase in AlphaScreen; poly-Histidine tag (in-house protein only) (cleaved yes); host or cells: E. coli BL21(DE3)RIL, co-expressed with PTP1B
Method in brief: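 His-tagged c-Kit expressed in E. coli with co-expressed PTP1B (dephosphorylated), tag removed; 0.1 ng per reaction with biotinylated-peptide substrate in 50 mM HEPES pH 7.2, 5 mM MgCl2, 5 mM MnCl2, 5% DMSO, 10 μM ATP, 1 h at room temperature. Phosphorylation detected by AlphaScreen (streptavidin donor, PY20 acceptor beads); IC50 from 8-point 1:3 dilution series.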

c-kit mutant D816V = target: T2, c-kit mutant D816V (Homo sapiens, UniProt P10721, D816V/DEL694-753); experiment: c-Kit mutant D816V biochemical assay, AlphaScreen; details: c-kit D816V biochemical inhibitory activity; read-out: Biochemical activity (IC50 μM) Kit D816V
T2 construct: residues 551-934, kinase insertion domain residues 694-753 deleted; 6x-histidine (N); made in house; host or cells: E. coli Arctic Express (DE3) RIL (Stratagene)
T2 sequence (P10721 with tags, fused parts or gaps DEL694-753/D816V): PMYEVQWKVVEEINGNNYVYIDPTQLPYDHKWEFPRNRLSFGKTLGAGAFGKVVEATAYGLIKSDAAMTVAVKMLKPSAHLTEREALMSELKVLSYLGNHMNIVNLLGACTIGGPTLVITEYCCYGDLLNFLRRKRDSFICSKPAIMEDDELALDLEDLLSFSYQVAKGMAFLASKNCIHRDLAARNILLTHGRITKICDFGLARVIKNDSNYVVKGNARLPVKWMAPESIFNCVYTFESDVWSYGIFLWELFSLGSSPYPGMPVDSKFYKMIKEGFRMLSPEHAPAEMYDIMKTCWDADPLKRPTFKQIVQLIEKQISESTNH
Method in brief: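 Purified His-tagged c-Kit D816V (E. coli-expressed) assayed in 25 mM HEPES pH 7.2 with Mg/Mn, 5% DMSO and 10 μM ATP, 30 min at room temperature, 8-point 1:3 dilutions. Phosphorylation detected by AlphaScreen with streptavidin donor and PY20 acceptor beads; IC50 from signal versus concentration.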

T1 sequence (P10721 26-976): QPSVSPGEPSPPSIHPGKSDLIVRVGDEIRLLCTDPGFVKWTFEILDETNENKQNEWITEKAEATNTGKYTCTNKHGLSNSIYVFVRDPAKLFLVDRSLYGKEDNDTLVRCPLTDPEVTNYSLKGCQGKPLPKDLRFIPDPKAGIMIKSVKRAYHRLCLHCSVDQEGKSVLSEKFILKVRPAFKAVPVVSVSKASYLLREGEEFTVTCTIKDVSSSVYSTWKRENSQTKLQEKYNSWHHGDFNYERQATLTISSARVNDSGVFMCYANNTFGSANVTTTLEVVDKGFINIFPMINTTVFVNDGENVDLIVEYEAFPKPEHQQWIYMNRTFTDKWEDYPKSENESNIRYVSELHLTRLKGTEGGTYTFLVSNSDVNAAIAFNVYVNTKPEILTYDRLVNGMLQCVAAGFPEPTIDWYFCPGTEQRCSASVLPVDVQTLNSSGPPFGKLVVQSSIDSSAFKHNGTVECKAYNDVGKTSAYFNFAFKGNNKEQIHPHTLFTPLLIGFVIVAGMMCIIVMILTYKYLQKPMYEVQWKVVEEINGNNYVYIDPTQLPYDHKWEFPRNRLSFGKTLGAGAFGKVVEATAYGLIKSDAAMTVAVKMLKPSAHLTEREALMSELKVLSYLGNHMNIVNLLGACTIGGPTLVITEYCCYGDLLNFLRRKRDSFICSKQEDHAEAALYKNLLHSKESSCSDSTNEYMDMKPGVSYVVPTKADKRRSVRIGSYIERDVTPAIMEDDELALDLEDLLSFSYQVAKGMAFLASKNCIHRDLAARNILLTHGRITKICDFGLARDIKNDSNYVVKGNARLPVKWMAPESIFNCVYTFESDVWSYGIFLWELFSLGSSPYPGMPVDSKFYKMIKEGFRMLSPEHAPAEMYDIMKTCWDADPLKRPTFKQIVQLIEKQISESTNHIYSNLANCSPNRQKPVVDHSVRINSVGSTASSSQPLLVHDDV

SMILES	IC50 (c-kit kinase) [µM]	IC50 (c-kit mutant D816V) [µM]
N#Cc1cccc(-c2cc3c(N4CCN(C(=O)NCc5ccc(F)cc5)CC4)ncnc3[nH]2)c1 [P-0110, 4-[6-(3-cyanophenyl)-7H-pyrrolo[2,3-d]pyrimidin-4-yl]-N-[(4-fluorophenyl)methyl]piperazine-1-carboxamide]	10 to 200	1 to 10
Cc1ncc(-c2cc3c(N4CCN(C(=O)NCc5ccc(F)cc5)CC4)ncnc3[nH]2)s1 [P-0079, N-[(4-fluorophenyl)methyl]-4-[6-(2-methylthiazol-5-yl)-7H-pyrrolo[2,3-d]pyrimidin-4-yl]piperazine-1-carboxamide]	0.0001 to 1	0.0001 to 1
C[C@H](NC(=O)N1CCN(c2ncnc3[nH]c(-c4ccc(C#N)cc4)cc23)C[C@H]1C)c1cccc(Cl)c1 [P-0694, (2R)-N-[(1S)-1-(3-chlorophenyl)ethyl]-4-[6-(4-cyanophenyl)-7H-pyrrolo[2,3-d]pyrimidin-4-yl]-2-methyl-piperazine-1-carboxamide]	10 to 200	0.0001 to 1
Cc1ccc(S(=O)(=O)Nc2ccc(-c3ncnc4[nH]cc(C)c34)cc2)cc1 [P-0448, 4-methyl-N-[4-(5-methyl-7H-pyrrolo[2,3-d]pyrimidin-4-yl)phenyl]benzenesulfonamide]	1 to 10	0.0001 to 1
COc1cccc([C@H](C)NC(=O)N2CCN(c3ncnc4[nH]c(-c5ccncc5)cc34)C[C@H]2C)c1 [P-0060, (2R)-N-[(1S)-1-(3-methoxyphenyl)ethyl]-2-methyl-4-[6-(4-pyridyl)-7H-pyrrolo[2,3-d]pyrimidin-4-yl]piperazine-1-carboxamide]	0.0001 to 1	0.0001 to 1
COCCOc1cc2ncnc(-c3ccc(NS(=O)(=O)c4cccc(F)c4)cc3F)c2cc1OCCOC [P-0260, N-[4-[6,7-bis(2-methoxyethoxy)quinazolin-4-yl]-3-fluoro-phenyl]-3-fluoro-benzenesulfonamide]	1 to 10	0.0001 to 1
O=S(=O)(NCc1ccc(F)cc1)c1ccc(-c2ncnc3[nH]c(-c4ccc(F)cc4)cc23)c(F)c1 [P-0354, 3-fluoro-N-[(4-fluorophenyl)methyl]-4-[6-(4-fluorophenyl)-7H-pyrrolo[2,3-d]pyrimidin-4-yl]benzenesulfonamide]	10 to 200	0.0001 to 1
CCCCS(=O)(=O)Nc1ccc(-c2cc3c(-c4ccc(NS(=O)(=O)CCCC)cc4)ncnc3[nH]2)cc1 [P-0388, N-[4-[4-[4-(butylsulfonylamino)phenyl]-7H-pyrrolo[2,3-d]pyrimidin-6-yl]phenyl]butane-1-sulfonamide]	10 to 200	0.0001 to 1
Cc1ccc(S(=O)(=O)NC2CCN(c3ncnc4[nH]c(C)cc34)CC2)cc1 [P-0675, 4-methyl-N-[1-(6-methyl-7H-pyrrolo[2,3-d]pyrimidin-4-yl)-4-piperidyl]benzenesulfonamide]	10 to 200	1 to 10
Cc1ccc(-c2cc3c(N4CCN(C(=O)N[C@@H](C)c5cccc(Cl)c5)C(C)(C)C4)ncnc3[nH]2)cn1 [P-0001, N-[(1S)-1-(3-chlorophenyl)ethyl]-2,2-dimethyl-4-[6-(6-methyl-3-pyridyl)-7H-pyrrolo[2,3-d]pyrimidin-4-yl]piperazine-1-carboxamide]	1 to 10	0.0001 to 1
C[C@H](NC(=O)N1CCN(c2ncnc3[nH]c(-c4ccc(Cl)cc4)cc23)C[C@H]1C)c1ccc(Cl)cc1 [P-0020, (2R)-N-[(1S)-1-(4-chlorophenyl)ethyl]-4-[6-(4-chlorophenyl)-7H-pyrrolo[2,3-d]pyrimidin-4-yl]-2-methyl-piperazine-1-carboxamide]	1 to 10	1 to 10
Cc1ccc2sc(S(=O)(=O)NC3CCN(c4ncnc5[nH]c(-c6cnn(C)c6)cc45)CC3)cc2c1 [P-0455, 5-methyl-N-[1-[6-(1-methylpyrazol-4-yl)-7H-pyrrolo[2,3-d]pyrimidin-4-yl]-4-piperidyl]benzothiophene-2-sulfonamide]	1 to 10	0.0001 to 1

From patent publication US10227357B2, “Compounds and methods for kinase modulation, and indications therefor” (Plexxikon Inc., priority 2012, dated 2019)
